Source: PMC9324262, “Selective CDK9 Inhibition by Natural Compound Toyocamycin in Cancer Cells” (Cancers, 2022)

How the values were obtained:
CDK7/Cyclin H/MAT1 = biological target: T1, CDK7/Cyclin H/MAT1 (Homo sapiens, UniProt P50613); test: in vitro kinase assay CDK7/Cyclin H/MAT1 (ADP-Glo); format: biochemical
T1 construct: purchased BPS Bioscience
Description: (§1) The in vitro enzymatic assays were conducted at BPS Bioscience. CDK9/Cyclin T1, CDK2/Cyclin 2A, CDK4/Cyclin D3, and CDK6/Cyclin D3 enzymatic activities were tested with an ATP Kinase-Glo Plus Luminescence kinase assay kit (Promega, V6073, Madison, WI, USA), while the CDK7/Cyclin H/MAT1 activities were tested using ADP-Glo Kinase (Promega, V6930). These assays measure kinase activity by quantifying the amount of ATP or ADP remaining in solution following a kinase reaction. The luminescent signal from the assay is correlated to the amount of ATP or ADP present and is inversely correlated to the kinase activity. The compounds were diluted to 10% DMSO and were added to the reaction so that the final concentration of DMSO was 1% in all reactions. All enzymatic reactions were conducted at 30 °C for 60 min. […] After the enzymatic reaction, the luminescence signal was measured using a BioTek Synergy 2 microplate reader (Agilent, Santa Clara, CA, USA). Kinase activity assays were performed in duplicate at each concentration and the percent of kinase activity was calculated as a ratio of luminescence intensities in the absence or in presence of the compounds. […] IC50 values were determined by the concentration causing a half-maximal percent activity (BPS Bioscience, San Diego, CA, USA).

[1] = tested on: Rb phosphorylation level (T826); test: Western blot, Rb and phospho-Rb T826; format: cell-based, human; details: HCT116, 50–500 nM, 6 h
CDK4/Cyclin D3 = biological target: T2, CDK4/Cyclin D3 (Homo sapiens, UniProt P11802); test: in vitro kinase assay CDK4/Cyclin D3 (Kinase-Glo Plus); format: biochemical
T2 construct: purchased BPS Bioscience
T2 sequence (P11802 whole entry): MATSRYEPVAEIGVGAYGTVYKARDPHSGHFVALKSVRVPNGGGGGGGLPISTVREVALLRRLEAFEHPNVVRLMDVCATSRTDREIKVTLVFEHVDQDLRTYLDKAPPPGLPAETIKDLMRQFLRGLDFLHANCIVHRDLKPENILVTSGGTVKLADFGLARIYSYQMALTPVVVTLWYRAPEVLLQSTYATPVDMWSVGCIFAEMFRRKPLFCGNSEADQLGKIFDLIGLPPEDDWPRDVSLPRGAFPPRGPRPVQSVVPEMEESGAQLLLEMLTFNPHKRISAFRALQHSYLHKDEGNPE
T2 sequence (P30281 whole entry partner): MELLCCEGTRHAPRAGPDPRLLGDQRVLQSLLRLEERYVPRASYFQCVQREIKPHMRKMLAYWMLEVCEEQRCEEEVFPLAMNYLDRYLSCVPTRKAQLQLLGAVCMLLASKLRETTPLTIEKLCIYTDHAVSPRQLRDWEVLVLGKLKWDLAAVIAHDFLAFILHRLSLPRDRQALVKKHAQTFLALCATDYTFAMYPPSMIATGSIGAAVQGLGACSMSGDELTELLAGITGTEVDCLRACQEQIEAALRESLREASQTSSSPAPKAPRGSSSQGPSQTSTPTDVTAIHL
Description: as §1

CDK9 = test: Western blot, CDK9 protein level; format: cell-based, human; details: HCT116, 50–500 nM, 6 h
Description: YB5 cells were harvested in 50 mM Tris-HCl, 1% NP-40, 1 mM EDTA, 1 mM EGTA, 0.25% sodium deoxycholate, 150 mM NaCl, 50 mM sodium fluoride, and 1X Complete protease cocktail (Roche, Basel, Switzerland) with 1 mM PMSF. The total protein concentration was measured in all samples by standard BCA protocol (Pierce-23225, Thermo Scientific, Waltham, MA, USA) to ensure that an equal amount of protein was added to each sample. Protein extracts were run on 12% SDS–PAGE precast gels (Bio-Rad, Hercules, CA, USA, 345-0118). Proteins were transferred to polyvinylidene difluoride (PVDF) membranes in 10 mmol/L CAPS (pH-11) containing 10% methanol and detected by using specific primary antibodies, horseradish peroxidase–conjugated secondary antibodies (GE Healthcare, Chicago, IL, USA), and an enhanced chemiluminescence reagent (Pierce). PVDF membranes were incubated with specific primary antibodies (actin—A5441, Sigma, St. Louis, MO, USA; HA-tagged—H9608, Sigma; FLAG-tagged—F3165, Sigma). FLAG- and HA-tagged CDK9 plasmids were a generous gift from Dr Bassel E. Sawaya (Temple University). […] After sonication, total protein concentrations were determined using Bradford protein assay. […] Band intensity quantifications were calculated using ImageJ software, edition 1.53 [27].

CDK2/Cyclin 2A = biological target: T3, CDK2/Cyclin 2A (Homo sapiens, UniProt P24941); test: biochemical; details: 10 µM ATP, 30 °C, 60 min
T3 construct: purchased BPS Bioscience
Description: as §1

CDK6/Cyclin D3 = biological target: T4, CDK6/Cyclin D3 (Homo sapiens, UniProt Q00534); test: in vitro kinase assay CDK6/Cyclin D3 (Kinase-Glo Plus); format: biochemical
T4 construct: purchased BPS Bioscience
T4 sequence (Q00534 whole entry): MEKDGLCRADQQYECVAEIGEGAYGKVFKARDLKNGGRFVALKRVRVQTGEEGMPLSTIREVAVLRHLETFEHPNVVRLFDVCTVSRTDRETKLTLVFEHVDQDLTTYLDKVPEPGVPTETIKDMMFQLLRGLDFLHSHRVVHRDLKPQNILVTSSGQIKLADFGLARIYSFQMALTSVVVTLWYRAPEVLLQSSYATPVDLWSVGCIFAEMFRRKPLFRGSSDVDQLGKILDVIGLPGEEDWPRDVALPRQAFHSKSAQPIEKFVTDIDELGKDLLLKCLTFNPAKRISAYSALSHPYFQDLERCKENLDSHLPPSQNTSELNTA
T4 sequence (P30281 whole entry partner): as the sequence (P30281 whole entry partner) above
Description: as §1

[2] = cell viability by Viacount, YB5; format: cell-based; details: human, YB5 colon cancer cells; 24 and 72 h, 50 nM to 50 µM, highest doses; read-out: cell viability relative to untreated cells
Description: Cell viability was measured in YB5 and HCT166 cells using Viacount (Luminex, Austin, TX, USA, 4000-0040) on a Guava flow cytometer (Millipore, Burlington, MA, USA). Colon cancer cells were grown in 96-well plates in the same conditions as in the drug screen and treated with toyocamycin and known CDK9 inhibitor BAY1251152 (Selleckchem, Houston, TX, USA). Cell culture media of each well was collected to harvest floating dead cells and kept aside for later. Cells were trypsinized (0.25% trypsin, Gibco, Waltham, MA, USA) for 5 min at 37 °C. Cell culture media of each well was added back to their corresponding wells to stop trypsinization and mixed thoroughly to obtain a single cell suspension. Viacount solution (Luminex, Austin, TX, USA, 4000-0040, 25 μL) was added to each well, and incubated (5 min at room temperature, in the dark) prior to cell viability analysis on the Guava flow cytometer.

YB5 cells = test: RNA sequencing, differential gene expression; format: cell-based, human
Description: Sequenced reads were aligned to the GRCh38.100 reference genome using STAR version 2.7.5a and gene-level counts were generated by setting the “quantMode GeneCounts” flag. Differential expression analysis was performed using EdgeR version 3.32.1.. The “filterByExpr” function in EdgeR was then used to determine genes with sufficiently large counts to be included in downstream differential expression testing. The filtered count matrix was then normalized using TMM normalization and differential expression testing was performed using the “glmTreat” function with the minimal required fold-change threshold set to “log2(1)” for significant differential gene expression (FDR < 0.1).

T1 sequence (P50613 whole entry): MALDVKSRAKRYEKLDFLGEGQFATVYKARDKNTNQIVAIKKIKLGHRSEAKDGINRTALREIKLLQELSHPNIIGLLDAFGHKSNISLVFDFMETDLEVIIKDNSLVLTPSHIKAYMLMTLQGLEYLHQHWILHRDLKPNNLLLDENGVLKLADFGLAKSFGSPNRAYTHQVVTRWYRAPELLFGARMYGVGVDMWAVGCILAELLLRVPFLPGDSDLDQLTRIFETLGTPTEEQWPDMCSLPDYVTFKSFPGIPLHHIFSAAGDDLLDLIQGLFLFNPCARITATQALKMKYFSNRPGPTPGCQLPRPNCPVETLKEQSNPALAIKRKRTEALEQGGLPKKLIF
T1 sequence (P51946 whole entry partner): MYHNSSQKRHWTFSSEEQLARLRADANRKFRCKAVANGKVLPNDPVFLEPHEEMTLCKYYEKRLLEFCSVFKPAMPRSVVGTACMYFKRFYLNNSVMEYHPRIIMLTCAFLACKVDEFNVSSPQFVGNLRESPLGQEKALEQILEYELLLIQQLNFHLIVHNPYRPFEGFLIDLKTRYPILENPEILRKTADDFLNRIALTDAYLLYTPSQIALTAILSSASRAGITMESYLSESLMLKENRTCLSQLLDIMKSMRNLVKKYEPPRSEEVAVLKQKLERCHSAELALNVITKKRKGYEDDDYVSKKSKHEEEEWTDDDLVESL
T1 sequence (P51948 whole entry partner): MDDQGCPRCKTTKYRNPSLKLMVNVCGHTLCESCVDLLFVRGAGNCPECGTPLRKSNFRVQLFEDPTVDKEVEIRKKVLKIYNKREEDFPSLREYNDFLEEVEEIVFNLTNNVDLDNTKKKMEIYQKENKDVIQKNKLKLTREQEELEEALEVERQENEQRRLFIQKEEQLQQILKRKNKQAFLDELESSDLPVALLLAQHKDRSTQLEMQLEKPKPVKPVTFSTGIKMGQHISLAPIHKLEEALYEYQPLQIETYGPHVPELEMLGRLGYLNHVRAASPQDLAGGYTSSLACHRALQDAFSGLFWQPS

SMILES: N#Cc1cn([C@@H]2O[C@H](CO)[C@@H](O)[C@H]2O)c2ncnc(N)c12 [toyocamycin, 7-Deaza-7-cyanoadenosine]
- IC50 (CDK7/Cyclin H/MAT1): 2.8 µM
- times less enzymatic inhibition of CDK7 as compared to CDK9 (CDK7/Cyclin H/MAT1; CDK7/Cyclin H/MAT1 vs CDK9/CycT1): 35 times
- Rb and its phosphorylated form (T826) [1]: did not change
- IC50 (CDK4/Cyclin D3): 15 µM
- CDK9 levels (CDK9): did not change
- IC50 (CDK2/Cyclin 2A): 0.67 µM
- IC50 (CDK6/Cyclin D3): > 10 µM
- viability [2]: > 50%
- gene downregulation (YB5 cells; 250 nM, 2 h): 3.5%
- number of genes downregulated (YB5 cells; 250 nM, 2 h): 513 genes
- number of genes upregulated (YB5 cells; 250 nM, 2 h): 24 genes
- number of genes downregulated (YB5 cells; 250 nM, 10 h): 2299 genes
- number of genes upregulated (YB5 cells; 250 nM, 10 h): 1999 genes
- level of differentially expressed genes (YB5 cells; 250 nM, 10 h to 96 h): up to 60%
- number of genes downregulated (YB5 cells; 250 nM, 24 h): 3651 genes
- number of genes upregulated (YB5 cells; 250 nM, 24 h): 3387 genes
- number of genes downregulated (YB5 cells; 250 nM, 48 h): 4377 genes
- number of genes upregulated (YB5 cells; 250 nM, 48 h): 4449 genes
- number of genes downregulated (YB5 cells; 250 nM, 96 h): 5061 genes
- number of genes upregulated (YB5 cells; 250 nM, 96 h): 5050 genes
- endogenous retrovirus (ERV) expression (YB5 cells; 24 h treatment): induced significant ERV expression
